Experimental data from patent US3988337A, “Substituted triamino-s-triazines” (BASF Wyandotte Corporation, priority 1974, dated 1976).

Columns and labels:
[1] = Catalysis of toluene diisocyanate condensation to cellular/resinous carbodiimide products (Table I); conditions: 100 parts toluene diisocyanate
Procedure: Utilizing the triazines of Examples III-VI hereof, a series of cellular and resinous products characterized by carbodiimide linkages, as defined in the above-referred to patents, were prepared by the following procedure:
(§1) One hundred parts of toluene diisocyanate was admixed with a catalyst in accordance herewith. With stirring, the admixture was heated to its reaction initiation temperature at which time the reactants were transferred to a separate container for foaming.

[2] = Efficacy of triazine catalysts with 1 part methanol in the catalyst blend (Table II); conditions: 1 part of methanol introduced into the catalyst blend
Procedure: as §1
To test the efficacy of the instant catalysts, samples analogous to samples C, D and Control were prepared, but wherein 1 part of methanol was introduced into the catalyst blend.

| SMILES | Initiation Temperature ([1]; catalyst 1.0 part) [°C] | Max. Exotherm ([1]; catalyst 1.0 part) [°C] | Nature of Product ([1]; catalyst 1.0 part) | Initiation Temp. [2] [°C] | Nature of Product [2] | Initiation Temperature ([1]; catalyst 2.0 parts) [°C] | Max. Exotherm ([1]; catalyst 2.0 parts) [°C] | Nature of Product ([1]; catalyst 2.0 parts) | Maximum Exotherm [2] [°C] |
| --- | --- | --- | --- | --- | --- | --- | --- | --- | --- |
| CCN(CC)c1nc(N(C)CCO)nc(N(CC)CC)n1 [DMT, 2,4-bis(diethylamino)-6-N-methylethanolamine-s-triazine, reference compound] | 124 | 185 | Foam | 25 | No Foam | – | – | – | – |
| CN(C)CCCN(CCO)c1nc(N(CCO)CCCN(C)C)nc(N(CCO)CCCN(C)C)n1 [Example III, 2,4,6-tris[3-dimethylamino-N-(2-hydroxyethyl)propylamino]-s-triazine] | – | – | – | – | – | 95 | 180 | Foam | – |
| CN(C)CCCN(CCCN(C)C)c1nc(N(C)CCO)nc(N(CCCN(C)C)CCCN(C)C)n1 [Example IV, 2,4-bis[bis(3-dimethylaminopropyl)amino]-6-(N-methyl-2-hydroxyethylamino)-s-triazine] | – | – | – | – | – | 100 | 188 | Foam | – |
| CCCCN(CCCC)c1nc(N(CCO)CCCN(C)C)nc(N(CCCC)CCCC)n1 [Example V, 2,4-bis(dibutylamino)-6-[3-dimethylamino-N-(2-hydroxyethyl)propylamino]-s-triazine] | 95 | 197 | Resin | 25 | Foam | – | – | – | – |
| CCN(CC)CCN(C)c1nc(N(C)CCO)nc(N(C)CCN(CC)CC)n1 [Example VI, 2,4-bis(N-methyl-2-diethylaminoethylamino)-6-(N-methyl-2-hydroxyethylamino)-s-triazine] | 94 | 140 | Resin | 25 | Foam | – | – | – | 177 |
